In the assay the target is T1, VLA-4 (Homo sapiens, UniProt P05556+P13612).
T1 construct: host or cells: Jurkat clone E6-1
As to the kind of experiment: Adhesion of Jurkat cells to immobilized VCAM-1 (domains 1-3). It is filed as cell-based. The conditions noted are these: adhesion of CFSE-labeled Jurkat cells to recombinant human VCAM-1 (domains 1-3) coated plates, compounds as yielded by solid phase synthesis, purity about 40-90%. Also noted: scale not given here. As to the method: In Vitro Assay: Adhesion of Jurkat Cells to Immobilized VCAM-1 (Domains 1-3).
Preparation of Fluorescence Labeled Jurkat Cells:
Jurkat cells (American Type Culture Collection, Clone E6-1, ATCC TIB-152) were cultured in RPMI 1640 medium (Nikken Bio Medical Laboratory, CM1101) supplemented with 10% fetal bovine serum (Hyclone, A-1119-L), 100 U/ml penicilin (Gibco BRL, 15140-122) and 100 μg/ml streptomycin (Gibco BRL, 15140-122) in a humidified incubator at 37° C. with 5% CO2.
Jurkat cells were incubated with phosphate balanced solution (PBS, Nissui, 05913) containing 25 μM of 5(-and-6)-carboxyfluorescein diacetate, succinimidyle ester (CFSE, Dojindo Laboratories, 345-06441) for 20 min at room temperature while gently swirling every 5 min. After centrifugation at 1000 rpm for 5 min, the cell pellet was resuspended with adhesion assay buffer at a cell density of 2×10^6 cells/ml. The adhesion assay buffer was composed of 24 mM Tris-HCl (pH 7.4), 137 mM NaCl, 27 mM KCl, 4 mM glucose, 0.1% bovine serum albumin (BSA, Sigma, A9647) and 2 mM MnCl2.
Preparation of VCAM-1 (Extracellular Domains 1-3):
Complementary DNA (cDNA) encoding 7-domain form of VCAM-1 (GenBank accession #M60335) was obtained using Rapid-Screen™ cDNA library panels (OriGene Technologies, Inc) at Takara Gene Analysis Center (Shiga, Japan). The primers used were 5′-CCAAGGCAGAGTACGCAAAC-3′ (sence) and 5′-TGGCAGGTATTATTAAGGAG-3′ (antisense). PCR amplification of the 3-domain VCAM-1 cDNA was perform using Pfu DNA polymerase (Stratagene) with the following sets of primers: (U-VCAMd1-3) 5′-CCATATGGTACCTGATCAATTTAAAATCGAGACCACCCCAGAA-3′; (L-VCAMd1-3) 5′-CCATATAGCAATCCTAGGTCCAGGGGAGATCTCAACAGTAAA-3′. PCR cycle was 94° C. for 45 sec, 55° C. for 45 sec, 72° C. for 2 min, repeating 15 cycles. After the purification of the PCR product, the fragment was digested with KpnI-AvrII. The digested fragment was ligated into pBluescript IISK(−) (Strategene), which was linealized by digesting with KpnI-XhoI. The ligation was followed by transformation to a Dam/Dcm methylase-free E. coli strain SCS110 (Strategene) to create the donor plasmid pH7. To direct VCAM-1 molecule into the insect cell secretory pathway, the VCAM-1 coding sequence was fused to signal peptide sequence of honeybee melittin. The resulting melittin-VCAM fusion was placed in correct orientation to the baculoviris polyhedrin promoter. Baculovirus transfer vector containing first 3-domain form VCAM-1 (pH10) was constructed by ligation of 0.9 kb fragment from AvrII/Klenow/BclI digests of pH7 into SalI/Klenow/BamHI digests of pMelBacB (Invitrogen). Recombinant baculovirus was generated by using Bac-N-Blue™ Transfection kit (Invitrogen) according to the manufacture's instruction. The recombinant virus was amplified by infection to High-Five™ insect cells for 5-6 days, and virus titer was determined by plaque assay.
High-Five™ insect cells were pelleted in a 225 ml conical tube by centrifugation at 1000 rpm for 5 min After discarding the supernatant, the pellet was resuspended in 1.5×10^9 pfu (MOI=5) of high-titer virus solution, followed by incubation for 1.5 hours at room temperature. The cells were pelleted again and washed once in fresh Express Five™ serum free medium. The cells were pelleted again and finally, resuspended in 200 ml of fresh Express Five™ medium, transferred to a 1,000 ml shaker flask, and incubated in a shaker at 27° C., 130 rpm, for 48 hours before the culture supernatant was collected. The purification of 3-domain form of VCAM-1 from the culture supernatant was performed by one-step anion exchange chromatography. Protein concentration was determined by using Coomassie protein assay reagent (Pierce) according to the manufacture's instruction.
Preparation of Microtiter Plates:
Recombinant human VCAM-1 (extracellular domains 1-3) was dissolved at 0.5 μg/ml in PBS. […]

Like-named read-outs stand apart in the source and are kept apart here.

IC50 data for 23 compounds are collected here from patent publication US6794386B2, “β-amino acid compounds as integrin antagonists” (Bayer Aktiengesellschaft, priority 2000, dated 2004).

T1 sequence (P13612 34-1032): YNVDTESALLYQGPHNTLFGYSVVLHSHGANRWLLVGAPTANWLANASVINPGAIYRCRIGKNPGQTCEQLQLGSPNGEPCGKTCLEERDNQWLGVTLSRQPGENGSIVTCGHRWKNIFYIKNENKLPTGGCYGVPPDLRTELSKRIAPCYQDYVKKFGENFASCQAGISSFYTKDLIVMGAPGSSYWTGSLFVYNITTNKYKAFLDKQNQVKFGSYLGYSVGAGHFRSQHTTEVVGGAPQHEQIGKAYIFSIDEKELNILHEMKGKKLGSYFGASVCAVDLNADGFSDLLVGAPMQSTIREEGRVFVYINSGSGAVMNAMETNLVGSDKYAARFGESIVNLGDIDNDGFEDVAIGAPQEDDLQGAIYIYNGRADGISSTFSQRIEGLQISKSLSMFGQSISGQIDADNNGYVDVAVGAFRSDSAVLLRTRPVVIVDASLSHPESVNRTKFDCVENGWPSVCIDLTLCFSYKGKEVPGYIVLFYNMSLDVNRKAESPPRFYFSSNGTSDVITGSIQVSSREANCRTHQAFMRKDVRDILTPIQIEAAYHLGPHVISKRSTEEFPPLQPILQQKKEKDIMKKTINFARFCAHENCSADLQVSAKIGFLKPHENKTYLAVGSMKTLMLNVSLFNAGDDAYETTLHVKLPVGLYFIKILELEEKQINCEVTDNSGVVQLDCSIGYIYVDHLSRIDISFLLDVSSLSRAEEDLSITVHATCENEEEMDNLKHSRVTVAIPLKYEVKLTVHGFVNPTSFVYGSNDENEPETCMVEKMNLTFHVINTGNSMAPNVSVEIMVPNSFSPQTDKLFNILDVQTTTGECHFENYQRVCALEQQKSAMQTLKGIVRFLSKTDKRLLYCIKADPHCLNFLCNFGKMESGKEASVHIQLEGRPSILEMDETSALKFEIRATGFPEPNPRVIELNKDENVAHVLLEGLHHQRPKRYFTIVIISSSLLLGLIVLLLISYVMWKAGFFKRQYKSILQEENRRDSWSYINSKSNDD
T1 sequence (P05556 21-798): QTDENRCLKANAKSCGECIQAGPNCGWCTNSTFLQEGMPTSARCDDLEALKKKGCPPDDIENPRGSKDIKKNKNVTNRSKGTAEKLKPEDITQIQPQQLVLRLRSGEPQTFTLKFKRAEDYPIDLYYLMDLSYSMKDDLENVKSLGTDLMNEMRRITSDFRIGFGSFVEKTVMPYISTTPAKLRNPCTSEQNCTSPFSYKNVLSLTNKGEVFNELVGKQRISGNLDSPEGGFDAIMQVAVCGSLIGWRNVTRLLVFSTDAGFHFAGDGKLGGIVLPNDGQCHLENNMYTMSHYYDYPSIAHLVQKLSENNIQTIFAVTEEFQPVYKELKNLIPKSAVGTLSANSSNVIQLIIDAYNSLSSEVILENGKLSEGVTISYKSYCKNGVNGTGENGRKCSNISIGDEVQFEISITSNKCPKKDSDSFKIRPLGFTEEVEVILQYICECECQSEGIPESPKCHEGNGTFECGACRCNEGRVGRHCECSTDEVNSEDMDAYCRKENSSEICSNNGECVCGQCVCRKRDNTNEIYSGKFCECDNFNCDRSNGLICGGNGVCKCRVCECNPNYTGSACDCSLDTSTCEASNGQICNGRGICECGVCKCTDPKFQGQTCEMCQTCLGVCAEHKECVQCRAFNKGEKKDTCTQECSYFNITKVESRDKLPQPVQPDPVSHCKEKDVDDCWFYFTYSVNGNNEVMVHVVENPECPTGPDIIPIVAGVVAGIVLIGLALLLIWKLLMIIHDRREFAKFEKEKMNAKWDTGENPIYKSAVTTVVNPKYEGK

As to `COc1ccc(-c2ccc(C[C@H](NC(=O)C3CCCN(S(=O)(=O)c4ccccc4C(F)(F)F)C3)C(=O)O)cc2)cc1` (some centres unmarked) [Example 1.80], the IC50 – broadly, the midpoint of a concentration-inhibition curve – was “C-D”. Consider `COc1ccc(-c2ccc(C[C@H](NC(=O)C3CCCN(S(=O)(=O)c4cc(Cl)ccc4OC)C3)C(=O)O)cc2)cc1` (some centres unmarked) [Example 1.81], for which the IC50 result is given as “C-D”. On to `COc1ccc(-c2ccc(C[C@H](NC(=O)C3CCCN(S(=O)(=O)Cc4ccccc4)C3)C(=O)O)cc2)cc1` (some centres unmarked) [Example 1.82], for which the half-inhibitory concentration (IC50) result was “C-D”. `COc1ccc(-c2ccc(C[C@H](NC(=O)C3CCCN(S(=O)(=O)c4cc(Cl)cc(Cl)c4)C3)C(=O)O)cc2)cc1` (some centres unmarked) [Example 1.83]: the half-inhibitory concentration (IC50) entry is listed as “C-D”. As for `Cc1ccccc1-c1ccc(C[C@H](NC(=O)C2CCCN(S(=O)(=O)CC34CCC(CC3=O)C4(C)C)C2)C(=O)O)cc1` (some centres unmarked) [Example 1.84], the IC50 result is on record as “C-D”.

Turning to `Cc1ccc(S(=O)(=O)N2CCCC(C(=O)N[C@@H](Cc3ccc(-c4ccccc4C)cc3)C(=O)O)C2)cc1` (some centres unmarked) [Example 1.85], the IC50 (read-out: IC50) was in the range of 500 to 2000 nM. As to `COC(=O)c1ccccc1S(=O)(=O)N1CCCC(C(=O)N[C@@H](Cc2ccc(-c3ccccc3C)cc2)C(=O)O)C1` (some centres unmarked) [Example 1.86], the half-maximal inhibitory concentration (IC50) (read-out: IC50) was 2000 to 10000 nM. The same measure, in the same setting: under `Cc1ccccc1-c1ccc(C[C@H](NC(=O)C2CCCN(S(=O)(=O)c3ccc4ccccc4c3)C2)C(=O)O)cc1` (some centres unmarked) [Example 1.87] stands 500 to 2000 nM; under `COc1ccc(S(=O)(=O)N2CCCC(C(=O)N[C@@H](Cc3ccc(-c4ccccc4C)cc3)C(=O)O)C2)cc1OC` (some centres unmarked) [Example 1.88], 2000 to 10000 nM. Consider `Cc1ccccc1-c1ccc(C[C@H](NC(=O)C2CCCN(S(=O)(=O)c3ccccc3C(F)(F)F)C2)C(=O)O)cc1` (some centres unmarked) [Example 1.89], for which the IC50 entry was “C-D”. Regarding `COc1ccc(Cl)cc1S(=O)(=O)N1CCCC(C(=O)N[C@@H](Cc2ccc(-c3ccccc3C)cc2)C(=O)O)C1` (some centres unmarked) [Example 1.90], the IC50 result is reported as “C-D”.

With `Cc1ccccc1-c1ccc(C[C@H](NC(=O)C2CCCN(S(=O)(=O)Cc3ccccc3)C2)C(=O)O)cc1` (some centres unmarked) [Example 1.91], the 50% inhibitory concentration (IC50) entry is on record as “C-D”. The same measure, in the same setting: under `Cc1ccccc1-c1ccc(C[C@H](NC(=O)C2CCCN(S(=O)(=O)c3cc(Cl)cc(Cl)c3)C2)C(=O)O)cc1` (some centres unmarked) [Example 1.92] stands “C-D”; under `CC1(C)C2CCC1(CS(=O)(=O)N1CCCC(C(=O)N[C@@H](Cc3ccc(-c4ccc(Cl)cc4Cl)cc3)C(=O)O)C1)C(=O)C2` (some centres unmarked) [Example 1.93], “C-D”. Take `Cc1ccc(S(=O)(=O)N2CCCC(C(=O)N[C@@H](Cc3ccc(-c4ccc(Cl)cc4Cl)cc3)C(=O)O)C2)cc1` (some centres unmarked) [Example 1.94]: the IC50 entry is listed as “C-D”. Regarding `COC(=O)c1ccccc1S(=O)(=O)N1CCCC(C(=O)N[C@@H](Cc2ccc(-c3ccc(Cl)cc3Cl)cc2)C(=O)O)C1` (some centres unmarked) [Example 1.95], the half-maximal inhibitory concentration (IC50) result is recorded as “C-D”.

For `O=C(N[C@@H](Cc1ccc(-c2ccc(Cl)cc2Cl)cc1)C(=O)O)C1CCCN(S(=O)(=O)c2ccc3ccccc3c2)C1` (some centres unmarked) [Example 1.96], the IC50 entry is on record as “C-D”. Take `O=C(N[C@@H](Cc1ccc(-c2ccc(Cl)cc2Cl)cc1)C(=O)O)C1CCCN(S(=O)(=O)c2c(Cl)cccc2Cl)C1` (some centres unmarked) [Example 1.97]: the half-inhibitory concentration (IC50) (read-out: IC50) lay in the range of 2000 to 10000 nM. Take `COc1ccc(S(=O)(=O)N2CCCC(C(=O)N[C@@H](Cc3ccc(-c4ccc(Cl)cc4Cl)cc3)C(=O)O)C2)cc1OC` (some centres unmarked) [Example 1.98]: the IC50 (read-out: IC50) was in the range of 2000 to 10000 nM.

For the compound `O=C(N[C@@H](Cc1ccc(-c2ccc(Cl)cc2Cl)cc1)C(=O)O)C1CCCN(S(=O)(=O)c2ccccc2C(F)(F)F)C1` (some centres unmarked) [Example 1.99], the IC50 result is “C-D”.

Regarding `COc1ccc(Cl)cc1S(=O)(=O)N1CCCC(C(=O)N[C@@H](Cc2ccc(-c3ccc(Cl)cc3Cl)cc2)C(=O)O)C1` (some centres unmarked) [Example 1.100], the IC50 result is given as “C-D”. Same read-out and setting: under `O=C(N[C@@H](Cc1ccc(-c2ccc(Cl)cc2Cl)cc1)C(=O)O)C1CCCN(S(=O)(=O)Cc2ccccc2)C1` (some centres unmarked) [Example 1.101] stands “C-D”; under `O=C(N[C@@H](Cc1ccc(-c2ccc(Cl)cc2Cl)cc1)C(=O)O)C1CCCN(S(=O)(=O)c2cc(Cl)cc(Cl)c2)C1` (some centres unmarked) [Example 1.102], “C-D”.
